We go through 18 molecules from patent US9682938B2, “Pyrazolone derivatives as nitroxyl donors” (Cardioxyl Pharmaceuticals, Inc., priority 2014, dated 2017).

Data set [1] can be described thus: In vitro plasma stability, dog plasma. The data set is classed as in vitro ADME. As to conditions: male, pH 7.4, 5 μM, 37° C., sampling 0-360 minutes, read-out: T1/2 Dog. In a few lines: (§1)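 Pooled plasma at pH 7.4 with sodium heparin or citrate anticoagulant; compound at 5 μM, 37° C with shaking, triplicate samples at 0–360 min. Quenched in acetonitrile/1% formic acid with internal standard; LC-MS/MS peak-area ratios without standard curve; T1/2 from percent remaining.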

Data set [2] can be described thus: In vitro plasma stability, human plasma. The conditions noted are these: male, pH 7.4, 5 μM, 37° C., sampling 0-360 minutes, read-out: T1/2 Human. The format is in vitro ADME. Summed up: as §1
In another data set the test system is normal beagle dogs. Description: Pharmacodynamic activity: systolic blood pressure decrease in telemetered dogs after oral dose. The format is in vivo, dog. The conditions noted are these: beagle dogs (n=3), single oral dose 30 mg/kg in PEG300, first 2 hr post-dose relative to baseline SBP. The method, then: The effect of certain compounds from Table 1 on blood pressure in freely moving telemetered normal beagle dogs (n=3) after single oral doses was evaluated. The animals were surgically implanted with a pressure transducer equipped telemetry transmitter. The transmitter assembly was secured internally and a fluid-filled catheter was placed into the abdominal aorta to allow for collection of cardiovascular data. To evaluate cardiovascular effects, 3 dogs were given single oral doses of a compound from Table 1 (100% PEG300 in gelatin capsules) at a concentration of 100 mg/mL and at doses of 30 mg/kg. Systemic blood pressure and heart rate were evaluated continuously for 2 hr before and for 24 hr after dosing (results not shown). To compare the pharmacodynamic activity for all tested compounds, the mean systolic blood pressure (SBP) decrease during the first 2 hr post-dose was determined relative to the baseline SBP (30-120 min pre-dose) (Table 6).

Data set [3] in a line: In vitro plasma stability, rat plasma. As to conditions: male, pH 7.4, 5 μM, 37° C., sampling 0-360 minutes, read-out: T1/2 Rat. The data set is classed as in vitro ADME. In a few lines: as §1

Take `CN1N=C(C(C)(C)C)C(NO)(c2ccccc2)C1=O` (centres unmarked) [Compound 113, 3-tert-Butyl-4-(hydroxyamino)-1-methyl-4-phenyl-4,5-dihydro-1H-pyrazol-5-one]: the results for the half-life at 5 μM in data set [1], in data set [2] and in data set [3] were 75 min, 30 min and 53 min, respectively. For the same molecule, the “Mean SBP decrease” value in the data set with normal beagle dogs is given as 18 mmHg.

`CN1N=C(c2ccc(S(=O)(=O)C(F)(F)F)cc2)C(C)(NO)C1=O` (centres unmarked) [Compound 34, 4-(hydroxyamino)-2,4-dimethyl-5-(4-((trifluoromethyl)sulfonyl)phenyl)-2,4-dihydro-3H-pyrazol-3-one]: the half-life at 5 μM in data set [1] worked out at 25 min; in data set [2], 36 min; in data set [3] it was 28 min. The “Mean SBP decrease” value in the data set with normal beagle dogs came out at 18 mmHg.

On to `CN1N=C(c2ccc(S(C)(=N)=O)cc2)C(C)(NO)C1=O` (centres unmarked) [Compound 75, 4-(Hydroxyamino)-3-{4-[imino(methyl)oxo-λ^6-sulfanyl]phenyl}-1,4-dimethyl-4,5-dihydro-1H-pyrazol-5-one], for which the half-life at 5 μM in data set [1] was found to be 47 min; in data set [2] it was 49 min; in data set [3] it was 113 min. In addition, the “Mean SBP decrease” value with normal beagle dogs is 12 mmHg.

For the molecule `CN1N=C(c2cccc(S(C)(=O)=O)c2)C(C)(NO)C1=O` (centres unmarked) [Compound 48, 4-(hydroxyamino)-2,4-dimethyl-5-(3-(methylsulfonyl)phenyl)-2,4-dihydro-3H-pyrazol-3-one], the half-life at 5 μM is 49 min in data set [1], 49 min in data set [2] and 53 min in data set [3]. Further, the “Mean SBP decrease” value in the data set with normal beagle dogs was determined as 17 mmHg.

For `CN1N=C(c2ccc(C(F)(F)F)cc2)C(C)(NO)C1=O` (centres unmarked) [Compound 4, 4-(hydroxyamino)-2,4-dimethyl-5-(4-(trifluoromethyl)phenyl)-2,4-dihydro-3H-pyrazol-3-one], the half-life at 5 μM in data set [1] was 69 min; in data set [2], 31 min; in data set [3], 38 min. Moreover, the “Mean SBP decrease” value with normal beagle dogs is reported as 6 mmHg.

For `CN1N=C(c2ccc(S(=O)(=O)N3CCOCC3)cc2)C(C)(NO)C1=O` (centres unmarked) [Compound 80, 4-(Hydroxyamino)-1,4-dimethyl-3-[4-(morpholine-4-sulfonyl)phenyl]-4,5-dihydro-1H-pyrazol-5-one], the half-life at 5 μM amounted to 49 min in data set [1], 46 min in data set [2] and 80 min in data set [3]. In the data set on normal beagle dogs, the “Mean SBP decrease” value amounted to 13 mmHg.

On to `CCO/N=C(\C)C1(NO)C(=O)N(C)N=C1C(C)(C)C` (centres unmarked) [Compound 112, 3-tert-Butyl-4-[1-(ethoxyimino)ethyl]-4-(hydroxyamino)-1-methyl-4,5-dihydro-1H-pyrazol-5-one], for which the half-life at 5 μM came out at 21 min in data set [1], 10 min in data set [2] and 19 min in data set [3]. For the same molecule, in the data set with normal beagle dogs, the “Mean SBP decrease” value is recorded as 21 mmHg.

Turning to `CN1N=C(c2ccc(S(C)(=O)=O)c(F)c2)C(C)(NO)C1=O` (centres unmarked) [Compound 40, 5-(3-fluoro-4-(methylsulfonyl)phenyl)-4-(hydroxyamino)-2,4-dimethyl-2,4-dihydro-3H-pyrazol-3-one], the half-life at 5 μM was 48 min in data set [1], 39 min in data set [2] and 39 min in data set [3]. Further, in the data set with normal beagle dogs, the “Mean SBP decrease” value stood at 15 mmHg.

With `CC(C)S(=O)(=O)c1ccc(C2=NN(C)C(=O)C2(C)NO)cc1` (centres unmarked) [Compound 78, 4-(Hydroxyamino)-1,4-dimethyl-3-[4-(propane-2-sulfonyl)phenyl]-4,5-dihydro-1H-pyrazol-5-one], the half-life at 5 μM worked out at 42 min in data set [1], 43 min in data set [2] and 75 min in data set [3]. Moreover, the “Mean SBP decrease” value with normal beagle dogs amounted to 27 mmHg.

On to `CN1N=C(c2ccc(S(=O)(=O)N(C)C)cc2)C(C)(NO)C1=O` (centres unmarked) [Compound 49, 4-(4-(hydroxyamino)-1,4-dimethyl-5-oxo-4,5-dihydro-1H-pyrazol-3-yl)-N,N-dimethylbenzenesulfonamide], for which the half-life at 5 μM in data set [1] was 39 min; in data set [2] it was 52 min; in data set [3], 70 min. Also, in the data set with normal beagle dogs, the “Mean SBP decrease” value came to 18 mmHg.

For `CO/N=C(\C)C1(NO)C(=O)N(C)N=C1c1ccccc1` (centres unmarked) [Compound 46, 4-(hydroxyamino)-4-(1-(methoxyimino)ethyl)-2-methyl-5-phenyl-2,4-dihydro-3H-pyrazol-3-one], the half-life at 5 μM in data set [1] was found to be 12 min; in data set [2], 11 min; in data set [3], 9 min.

On to `CN(C)C(=O)c1ccc(C2=NN(C)C(=O)C2(C)NO)cc1` (centres unmarked) [Compound 84, 4-[4-(Hydroxyamino)-1,4-dimethyl-5-oxo-4,5-dihydro-1H-pyrazol-3-yl]-N,N-dimethylbenzamide], for which the half-life at 5 μM in data set [1] worked out at 100 min; in data set [2] it was 89 min; in data set [3], 161 min. The “Mean SBP decrease” value in the data set on normal beagle dogs is recorded as 15 mmHg.

Turning to `CC1=NN(C)C(=O)C1(NO)c1ccc(F)cc1` (centres unmarked) [Compound 27, 4-(4-fluorophenyl)-4-(hydroxyamino)-2,5-dimethyl-2,4-dihydro-3H-pyrazol-3-one], the half-life at 5 μM in data set [1] turned out to be 23 min; in data set [2] it was 21 min; in data set [3], 19 min.

As for `CN1N=C(c2cc(Cl)cc(Cl)c2)C(C)(NO)C1=O` (centres unmarked) [Compound 9, 5-(3,5-dichlorophenyl)-4-(hydroxyamino)-2,4-dimethyl-2,4-dihydro-3H-pyrazol-3-one], the half-life at 5 μM in data set [1] was 59 min; in data set [2], 43 min; in data set [3] it was 17 min.

For the molecule `CN1N=C(c2ccc(C(=O)N3CCC(F)(F)CC3)cc2)C(C)(NO)C1=O` (centres unmarked) [Compound 85, 3-[4-(4,4-Difluoropiperidine-1-carbonyl)phenyl]-4-(hydroxyamino)-1,4-dimethyl-4,5-dihydro-1H-pyrazol-5-one], the values for the half-life at 5 μM in data set [1], in data set [2] and in data set [3] were 86 min, 105 min and 125 min, respectively.

Take `CCC1(NO)C(=O)N(C)N=C1c1ccccc1F` (centres unmarked) [Compound 31, 4-ethyl-5-(2-fluorophenyl)-4-(hydroxyamino)-2-methyl-2,4-dihydro-3H-pyrazol-3-one]: the half-life at 5 μM was 201 min in data set [1], 59 min in data set [2] and 66 min in data set [3].

With `CN1N=C(c2ccccc2)C(NO)(c2ccccc2)C1=O` (centres unmarked) [Compound 109, 4-(Hydroxyamino)-1-methyl-3,4-diphenyl-4,5-dihydro-1H-pyrazol-5-one], the half-life at 5 μM in data set [1] turned out to be 11 min; in data set [2] it was 10 min; in data set [3] it was 8 min.

In the case of `CN1N=C(c2ccc(S(=O)(=O)N3CCC(F)(F)CC3)cc2)C(C)(NO)C1=O` (centres unmarked) [Compound 114, 3-{4-[(4,4-Difluoropiperidin-1-yl)sulfonyl]phenyl}-4-(hydroxyamino)-1,4-dimethyl-4,5-dihydro-1H-pyrazol-5-one], the half-life at 5 μM turned out to be 42 min in data set [1], 25 min in data set [2] and 49 min in data set [3].
